Experimental findings from patent US10913738B2 (BRISTOL-MYERS SQUIBB COMPANY, priority 2017, dated 2021) are described below.

For assay [1], the target named is T1, His-GST-TVMV-hRIPK1(1-324) (Homo sapiens, UniProt Q13546).
T1 construct: The coding region of human RIPK1(1-324) flanked by NdeI site at 5′ end; made in house; host or cells: Spodoptera frugiperda (Sf9) insect cells, baculovirus
T1 sequence (Q13546 1-324): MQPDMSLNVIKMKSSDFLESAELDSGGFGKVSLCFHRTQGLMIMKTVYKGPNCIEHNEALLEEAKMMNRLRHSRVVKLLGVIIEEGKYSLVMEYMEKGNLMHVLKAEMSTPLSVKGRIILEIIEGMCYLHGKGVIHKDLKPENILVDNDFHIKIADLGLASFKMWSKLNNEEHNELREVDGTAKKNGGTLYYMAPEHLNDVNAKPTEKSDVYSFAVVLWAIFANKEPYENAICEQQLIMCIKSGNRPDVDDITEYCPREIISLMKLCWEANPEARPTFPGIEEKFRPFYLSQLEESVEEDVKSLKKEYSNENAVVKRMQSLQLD
The experiment in a line: RIPK1 HTRF Binding Assay.

Assay [2] deals with MLKL phosphorylation in HT29-L23 human colorectal adenocarcinoma cells. In words: MLKL Phosphorylation High-Content Assay. Type of assay: cell-based. The following applies: Homo sapiens. The gist of the method:
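Cells incubated six hours at 37° C., then phospho-MLKL (S358) immunostained overnight at 4° C. and imaged by high-content microscopy. Phosphorylation quantified as mean circ-ring average intensity ratio; IC50 and Ymax from 4-parameter logistic fits.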

Setting [3] is: x marks IC50 class 20-200 nM, read-out: RIPK1 HTRF binding 20-200 nM.
Where [4] appears, read: x marks IC50 class 20-200 nM, read-out: pMLKL cell activity 20-200 nM.
[5] abbreviates: x marks IC50 class <20 nM, read-out: RIPK1 HTRF binding <20 nM.
[6] abbreviates: x marks IC50 class <20 nM, read-out: pMLKL cell activity <20 nM.
Where [7] appears, read: x marks IC50 class >200 nM, read-out: pMLKL cell activity >200 nM.

Where two headings read alike, the source gives them in different places.

Regarding `Cc1ncc(-c2ccn3nc(N)nc3c2)cc1C(=O)NCc1ncccc1OCC1CCC1` [Example 236, 5-{2-amino-[1,2,4]triazolo[1,5-a]pyridin-7-yl}-N-{[3-(cyclobutylmethoxy)pyridin-2-yl]methyl}-2-methypyridine-3-carboxamide], the IC50 in assay [1] (setting [3]) and in assay [2] (setting [4]) was 20 to 200 nM each time.

Turning to `Cc1ncc(-c2ccn3nc(N)nc3c2)cc1C(=O)NCc1ccccc1OC1CCC(C)C1` (stereo not shown) [Example 237, 5-{2-amino-[1,2,4]triazolo[1,5-a]pyridin-7-yl}-2-methyl-N-({2-[(3-methylcyclopentyl)oxy]phenyl}methyl)pyridine-3-carboxamide], the IC50 in assay [1] (setting [5]) and in assay [2] (setting [6]) was less than 20 nM each time.

Turning to `Cc1ncc(-c2ccn3nc(N)nc3c2)cc1C(=O)NCc1ncccc1OCC1CC1` [Example 238, 5-{2-amino-[1,2,4]triazolo[1,5-a]pyridin-7-yl}-N-{[3-(cyclopropylmethoxy)pyridin-2-yl]methyl}-2-methylpyridine-3-carboxamide], the IC50 in assay [1] (setting [3]) and in assay [2] (setting [4]) was 20 to 200 nM in each case.

Turning to `Cc1ncc(-c2ccn3nc(N)nc3c2)cc1C(=O)NCc1ccccc1OC1CCCCC1` [Example 239, 5-{2-amino-[1,2,4]triazolo[1,5-a]pyridin-7-yl}-N-{[2-(cyclohexyloxy)phenyl]methyl}-2-methylpyridine-3-carboxamide], the IC50 in assay [1] (setting [5]) and in assay [2] (setting [6]) was less than 20 nM each time.

`Cc1ncc(-c2ccn3nc(N)nc3c2)cc1C(=O)NCc1cccnc1OC1CCCC1` [Example 240, 5-{2-amino-[1,2,4]triazolo[1,5-a]pyridin-7-yl}-N-{[2-(cyclopentyloxy)pyridin-3-yl]methyl}-2-methylpyridine-3-carboxamide]: the figures for the IC50 in assay [1] (setting [5]) and in assay [2] (setting [4]) were less than 20 nM and 20 to 200 nM, respectively.

Take `Cc1ncc(-c2ccn3nc(N)nc3c2)cc1C(=O)NCc1ncccc1OC1CCCC1` [Example 241, 5-{2-amino-[1,2,4]triazolo[1,5-a]pyridin-7-yl}-N-{[3-(cyclopentyloxy)pyridin-2-yl]methyl}-2-methylpyridine-3-carboxamide]: the figures for the IC50 in assay [1] (setting [5]) and in assay [2] (setting [4]) were less than 20 nM and 20 to 200 nM, respectively.

For `Cc1ncc(-c2ccn3nc(N)nc3c2)cc1C(=O)NCc1cc(F)ccc1OC1CCCC1` [Example 242, 5-{2-amino-[1,2,4]triazolo[1,5-a]pyridin-7-yl}-N-{[2-(cyclopentyloxy)-5-fluorophenyl]methyl}-2-methylpyridine-3-carboxamide], the IC50 in assay [1] (setting [5]) and in assay [2] (setting [6]) was less than 20 nM each time.

On to `Cc1ncc(-c2ccn3nc(N)nc3c2)cc1C(=O)NCc1cccc(OCC2CC2)c1` [Example 243, 5-{2-amino-[1,2,4]triazolo[1,5-a]pyridin-7-yl}-N-{[3-(cyclopropylmethoxy)phenyl]methyl}-2-methylpyridine-3-carboxamide], for which the IC50 was 20 to 200 nM in assay [1] (setting [3]) and greater than 200 nM in assay [2] (setting [7]).

In the case of `Cc1ncc(-c2ccn3nc(N)nc3c2)cc1C(=O)NCc1ccccc1OC(F)(F)C(F)F` [Example 244, 5-{2-amino-[1,2,4]triazolo[1,5-a]pyridin-7-yl}-2-methyl-N-{[2-(1,1,2,2-tetrafluoroethoxy)phenyl]methyl}pyridine-3-carboxamide], the values for the IC50 in assay [1] (setting [3]) and in assay [2] (setting [7]) were 20 to 200 nM and greater than 200 nM, respectively.

As for `Cc1ncc(-c2ccn3nc(N)nc3c2)cc1C(=O)NCc1c(F)cccc1OCC1CC1` [Example 245, 5-{2-amino-[1,2,4]triazolo[1,5-a]pyridin-7-yl}-N-{[2-(cyclopropylmethoxy)-6-fluorophenyl]methyl}-2-methylpyridine-3-carboxamide], the IC50 in assay [1] (setting [5]) is less than 20 nM; in assay [2] (setting [4]), 20 to 200 nM.

Consider `Cc1ncc(-c2ccn3nc(N)nc3c2)cc1C(=O)NCc1cccc(OC(F)(F)F)c1` [Example 246, 5-{2-amino-[1,2,4]triazolo[1,5-a]pyridin-7-yl}-2-methyl-N-{[3-(trifluoromethoxy)phenyl]methyl}pyridine-3-carboxamide], for which the IC50 is 20 to 200 nM in assay [1] (setting [3]) and greater than 200 nM in assay [2] (setting [7]).
